PMC8445934, “Transformation of tenofovir into stable ProTide nanocrystals with long-acting pharmacokinetic profiles” (Nature Communications, 2021)
≈ marks a conversion by molar mass, not a printed value. Where “and” joins values, the source holds several entries; their conditions need not be identical. Equal entries are not always repeated. Where two headings read alike, the source gives them in different places.

How the values were obtained:
[1] = Aqueous and 1-octanol solubility (excess drug, shaking 48 h, UPLC-UV); type: physicochemical; settings: for solubility at 48 h: water, thermodynamic from solid
Method: Samples were centrifuged at 20,000 × g for 10 min to separate the solubilized drug from insoluble pellet. Aqueous supernatants were frozen, lyophilized, and then resuspended in MeOH. 1-octanol supernatants were prepared for analysis by dilution in MeOH and samples analyzed for drug content by UPLC-UV (Waters Acquity H Class).

HIV-1ADA [2] = assay: Long-term antiretroviral efficacy in MDM after single 8 h treatment (HIV-1 RT activity, p24); type: cell-based; settings: for HIV-1 RT activity: MDM, 10 µM (Figure 4D)
Method: (§1) To determine long-term antiretroviral efficacy following a single treatment, MDMs were plated in flat-bottom 12-well plates at a density of 1.2 × 10^6 cells/well. […] After treatment, the cells were washed twice with PBS and cultured in a fresh culture medium without drug with half-media replacement every other day. On days 1, 5, 10, 15, 20, 25, and 30 following treatment, the cells were infected with HIV-1ADA (a macrophage-tropic viral strain) at a multiplicity of infection of 0.1 infectious particles/cell for 8 h. MDM were cultured, and media samples collected on day 10 for the measurement of HIV reverse transcriptase (RT) activity as previously described[64],[65]. Cells were fixed in 2% PFA at each time point, and expression of the HIV-1p24 antigen was determined by immunocytochemistry. […] After 4 h of viral challenge, the cells were washed with PBS and given fresh media that contained the same concentrations of drug (0.00005–5,000 nM). Cell supernatants were collected 10 days later and assayed for HIV-1 RT activity as described above. Replicate studies were performed in CEM-ss CD4+ T-cell cultures. Specifically, cells were plated in 96-well plates, centrifuged at 650 × g for 5 min, and resuspended in (0.1–1,000 nM) drug-containing media for 1 h. The subsequent challenge with HIV-1NL4–3-eGFP, cell culture, sample collection, and determination of HIV-1 RT activity were performed as previously reported[13],[15].

[3] = tested on: human monocyte-derived macrophages (MDM); assay: MTT cell viability / mitochondrial activity assay in MDM; settings: for Cell viability by MTT, normalized to untreated control cells: replicates
Method: Human monocytes were obtained, cultured, and differentiated into MDM as previously described[11],[12],[34],[62]. The cell viability after treatment with nanoparticles was evaluated using the MTT assay. […] The cells were then washed with PBS after which 100 μL of MTT solution was added to each well (5 mg/mL) for 45 min at 37 °C. The MTT solution was then replaced with 200 μL/well of DMSO. A Molecular Devices SpectraMax M3 plate reader with SoftMax Pro 6.2 software (Sunnyvale, CA) was used to record absorbance at a wavelength of 490 nm.

HIV-1ADA [4] = assay: Antiretroviral EC50/IC50 in MDM by HIV-1 RT activity after HIV-1ADA challenge; type: cell-based; settings: for RT activity (cpm/ mL): replicate wells
Method: as §1

Structure (SMILES): CC(C)OC(=O)[C@H](C)N[P@](=O)(CO[C@H](C)Cn1cnc2c(N)ncnc21)Oc1ccccc1 [TAF, tenofovir alafenamide]
- water solubility, individual replicates ([1]; Figure 1C source data): 4.882
- solubility at 48 h ([1]; Figure 1C source data, read-out: water solubility, individual replicates): 6160 µg/mL (≈ 12.9 mM)
- solubility at 48 h ([1]; room temperature, 48 h, read-out: aqueous solubilities): 5520 µg/mL (≈ 11.6 mM)
- viral breakthrough (HIV-1ADA [2]; 10 μM, day 30): complete viral breakthrough
- inhibition at 10 µM (HIV-1ADA [2]; Human immunodeficiency virus 1, 240 h, read-out: viral inhibition): 84.5%
- HIV-1 RT activity (HIV-1ADA [2]; challenge day 1, replicates): 1.694 % of postive control and 1.963 % of postive control and 1.344 % of postive control and 1.665 % of postive control and 1.247 % of postive control and 0.8808 % of postive control
- HIV-1 RT activity (HIV-1ADA [2]; challenge day 5, replicates): 1.516 % of postive control and 1.942 % of postive control and 1.963 % of postive control and 1.828 % of postive control and 2.306 % of postive control and 0.4466 % of postive control
- HIV-1 RT activity (HIV-1ADA [2]; challenge day 10, replicates): 13.8971 % of postive control and 15.2412 % of postive control and 16.845 % of postive control and 11.6649 % of postive control and 19.6336 % of postive control and 17.0654 % of postive control
- HIV-1 RT activity (HIV-1ADA [2]; challenge day 15, replicates): 10.4755 % of postive control and 3.747 % of postive control and 7.537 % of postive control and 13.2434 % of postive control and 32.8105 % of postive control
- HIV-1 RT activity (HIV-1ADA [2]; challenge day 30, replicates): 86.3496 % of postive control and 48.9086 % of postive control and 79.0354 % of postive control and 54.8629 % of postive control
- toxicity to cells ([3]; 100 μM): highly toxic to cells
- concentration above which a decrease in cell viability was observed ([3]; 8 h): above 12.5 μM
- Cell viability by MTT, normalized to untreated control cells ([3]; 8 h, 1.5625 uM): 0.7334 and 0.7343 and 0.7491
- Cell viability by MTT, normalized to untreated control cells ([3]; 8 h, 3.125 uM): 0.6802 and 0.6819 and 0.7483
- Cell viability by MTT, normalized to untreated control cells ([3]; 8 h, 6.25 uM): 0.6627 and 0.6548 and 0.6836 and 0.7177
- Cell viability by MTT, normalized to untreated control cells ([3]; 8 h, 25 uM): 0.6304 and 0.5666 and 0.5754 and 0.5928
- Cell viability by MTT, normalized to untreated control cells ([3]; 8 h, 50 uM): 0.4531 and 0.3981 and 0.3597 and 0.4348
- Cell viability by MTT, normalized to untreated control cells ([3]; 8 h, 100 uM): 0.3842 and 0.3676 and 0.4051 and 0.4296
- Cell viability by MTT, normalized to untreated control cells ([3]; 8 h, 200 uM): 0.3562 and 0.31 and 0.303 and 0.3222
- EC50 (HIV-1ADA [4]; Human immunodeficiency virus 1, 240 h): 0.22 nM
- RT activity (cpm/ mL) (HIV-1ADA [4]; drug concentration 5e-6 nM): 29.681 cpm/ mL and 30.024 cpm/ mL and 28.68 cpm/ mL
- RT activity (cpm/ mL) (HIV-1ADA [4]; drug concentration 5e-5 nM): 35.114 cpm/ mL and 41.925 cpm/ mL and 38.687 cpm/ mL
- RT activity (cpm/ mL) (HIV-1ADA [4]; drug concentration 0.0005 nM): 33.176 cpm/ mL and 39.763 cpm/ mL and 30.439 cpm/ mL
- RT activity (cpm/ mL) (HIV-1ADA [4]; drug concentration 0.005 nM): 15.954 cpm/ mL and 19.78 cpm/ mL and 30.439 cpm/ mL
- RT activity (cpm/ mL) (HIV-1ADA [4]; drug concentration 0.05 nM): 13.503 cpm/ mL and 38.469 cpm/ mL
- RT activity (cpm/ mL) (HIV-1ADA [4]; drug concentration 0.5 nM): 16.77 cpm/ mL and 16.849 cpm/ mL and 12.873 cpm/ mL
- RT activity (cpm/ mL) (HIV-1ADA [4]; drug concentration 5 nM): 0.361 cpm/ mL and 0.448 cpm/ mL and 0.415 cpm/ mL
- RT activity (cpm/ mL) (HIV-1ADA [4]; drug concentration 50 nM): 0.452 cpm/ mL and 0.242 cpm/ mL
- RT activity (cpm/ mL) (HIV-1ADA [4]; drug concentration 500 nM): 0.23 cpm/ mL and 0.324 cpm/ mL and 0.407 cpm/ mL
- RT activity (cpm/ mL) (HIV-1ADA [4]; drug concentration 5000 nM): 0.233 cpm/ mL and 0.252 cpm/ mL and 0.245 cpm/ mL
